These results are taken from patent US20230381237A1, “CHIMERIC ANTIGEN RECEPTOR (CAR) T-CELL ADJUVANT THERAPIES” (priority 2022, published 2023).

The test system of data set [1] is PBMCs activated through TLR-3. Nature of the data set: TNFα production in Poly r(I:C)-activated PBMCs (sandwich ELISA). The conditions noted are these: 0.3 nM to 750 nM. A general note: An ELISA detects its analyte on a solid surface through an enzyme-linked reagent.
Data set [2] can be described thus: Pharmacokinetics in African Green Monkeys, TID oral gavage. The class given is in vivo. Here is the method:
(§1) Individual Animal Metrics—Nine African green monkeys (approximately 16 years old, wild-caught) were used in this PK study. Per requirements of the CDC, all animals were quarantined at a CDC facility for 30 days followed by a 90-day quarantine/acclimation period at TNPRC prior to study initiation. Animals were dosed three times daily (TID) by oral gavage in three separate rounds of the study (ascending dose concentrations). Individual animal weights were tracked throughout the entirety of the study. On average, weights decreased 5.5% across all cohorts, with no individual animal losing more than 8.7% of its initial body weight over the course of the study. No difference in mean weight change is observed between male and female monkeys. […] Ultimately, the animals handled the schedule well, all remaining in good health with a weight loss of no more than what was expected by the veterinary staff with the schedule intensity.
Individual animal profiles were evaluated following each dose on a single day of dosing. Single day TID doses were administered using the same animals following a minimum of 7 days wash out between increasing dose level rounds, where Round 1 was TID 0.008 mg/kg/day (0.00267 mg/kg/dose), Round 2 was TID 0.04 mg/kg/day (0.0133 mg/kg/dose), and Round 3 was TID 0.2 mg/kg/day (0.0667 mg/kg/dose). Wash out (negative) plasma levels of CTO1681 between dose rounds were confirmed. […] Samples were collected at the following target timepoints relative to the first TID dose of the day: 0.25, 0.5, 1, 2, 4, and 8 hours (prior to second daily dose), 8.25, 8.5, 9, 10, 12, and 16 hours (prior to third daily dose), 16.25, 16.5, 17, 18, 20, 24, 28 and 40 hours after TID test item administration by oral gavage dosing, with the three daily doses administered at 0, 8 and 16 h in 9 animals, staggered for n=3 collection after administration of each daily dose. […]

A short description of data set [3]: Body weight and tolerability in African green monkey PK study. The class given is in vivo, African green monkeys. Here is the method:
as §1

A short description of data set [4]: Example 5: treatment with monitored delay period. It counts as in vivo, human. As to conditions: acute myeloid leukemia; start upon cytokine increase, ten days. The text has this: Both groups will receive infusion of CAR T-cells. Cytokines will be monitored daily for both groups. […] Treatment with CTO1681 will continue daily for ten days.
Data set [5] is described as follows: Example 2: mouse model of CAR T-cell therapy induced CRS. The conditions noted are these: IP, BID for 7 days.
The nature of data set [6]: BID dose PK study in NSG mice (CAS-2201). It counts as in vivo, murine (NSG).
For data set [7], the system named is CD19 CAR T-cells co-cultured with CD19+Raji lymphoma target cells. Nature of the data set: CD19 CAR T-cell / Raji co-culture, pro-inflammatory cytokine levels. It counts as cell-based, human.
A short description of the next data set: Food effect. It counts as in vivo. As to conditions: oral tablets.
Data set [8] in a line: Example 4: treatment with predetermined delay period. It counts as in vivo, human. As to conditions: mantle cell lymphoma; start three days after CAR T-cells, eleven days. The text has this: Both groups will receive infusion of CAR T-cells. […] Cytokines will be monitored daily for both groups.
The nature of data set [9]: Phase 1 multiple ascending, repeat-dosing study in healthy volunteers.
Data set [10] in a line: Single dose PK study in BALB/C mice. It counts as in vivo, murine (BALB/C).
The test system of another data set is CD19+Raji tumor cells. Nature of the data set: CD19 CAR T-cell killing of Raji target cells (flow cytometry, 7-AAD). The conditions noted are these: in vitro; Effector:Target 10:1, 5:1, 1:1; all concentrations; monosodium salt. It counts as cell-based, human.
For the next data set, the system named is influenza (H1N1). Nature of the data set: In vivo lethal influenza H1N1 studies, cytokine levels. The arrangement: species or system mice.
The subject of data set [11] is circulating cytokines (TNFα). Nature of the data set: Serum cytokine measurements after CTO1681 treatment in African Green Monkeys. It counts as in vivo. The conditions noted are these: highest dose of CTO1681 compared to the other two cohorts. From the text:
Longitudinal serum samples were taken through the course of the observation period. At the end of all three cohorts serum samples were utilized to determine circulating concentrations of 12 different cytokines. Representative data is pictured below for TNFα, a key central cytokine in CRS (FIG. 6). […] Overall there appears to be a dose-dependent trend to cytokine reduction.

Another data set deals with Raji-luc tumor cells. Nature of the data set: CAR T-cell efficacy in NSG tumor bearing mice. It counts as in vivo. As to the method: Human T-cells expressing CD19-CD28-CD3Z CAR construct was used in this experiment.
6-7 week old NSG™ (NOD SCID gamma) mice were engrafted with 1×10^6 luciferase (luc) expressing Raji tumor cells (herein referred to as “Raji-luc” tumor cells) each on Day 1 to allow for tumor growth over a 7-day period prior to the commencement of the treatment. CAR T-cell infusion was performed intravenously via lateral tail vein on (5×10^6 CD19 CAR T-cells generated from healthy donors). NSG mice are severely immunodeficient, which facilitates ready tumor engraftment and subsequent clearance due to CAR T-cells can be measured.
Tumor growth after engraftment and subsequent clearance were monitored once weekly (starting on Day 7) using IVIS imaging to detect luciferase signal in living mice. […] CTO1681 doses were selected based on the pharmacokinetic profile of the drug in mice. Control groups included mice receiving Raji-luc tumor cells without CAR T-cell treatment, mice receiving Raji-luc tumor cells and a CAR T-cell infusion, and mice receiving Raji-luc tumor cells with vehicle treatments. Mice were monitored for body temperature and health evaluations (weight, movement, posture, fur condition, etc.) throughout the entire study.

A short description of data set [12]: Example 3: human treatment with no delay period. It counts as in vivo. The conditions noted are these: B-cell lymphoma, daily for 7-15 days. From the text: Both groups will receive infusion of CAR T-cells. […] Clinical signs of CRS and cytokines will be monitored daily for both groups.
The test system of the next data set is influenza (H5N1). The conditions noted are these: in vivo; cited from earlier work.
The subject of a further data set is TNF-α. The conditions noted are these: patients with diabetes; doses within dose equivalencies of CTO1681 MAD study; cited from earlier work.
Where [13] appears, read: 10:1 ratio of Effectors to Target cells, CTO1681 0.36-225 nM, 24 hours.
[14] abbreviates: CytoAgents in vivo influenza (H1N1) studies.

“Also recorded” adds a separate entry of the source.

Regarding `CC#CCC(C)[C@H](O)/C=C/[C@@H]1[C@H]2c3cccc(CCCC(=O)O)c3O[C@H]2C[C@H]1O` (some centres unmarked) [Beraprost, reference compound], the EC50 in [1] (PBMC, Replicate 1) was 17.1 nM; in data set [1] (PBMC, Replicate 2) it was 8.64 nM; in [1] (PBMC, Replicate 3) it was 17.1 nM.
Turning to `CC#CC[C@H](C)[C@H](O)/C=C/[C@@H]1[C@H]2c3cccc(CCCC(=O)[O-])c3O[C@H]2C[C@H]1O.[Na+]` [CTO1681, (+)-[1R, 2R, 3aS, 8bS]-2,3,3a,8b-tetrahydro-2-hydroxy-1-[(E)-(3S,4S)-3-hydroxy-4-methyl-1-octen-6-ynyl)-1Hcyclopenta[b]benzofuran-5-butanoic acid, monosodium salt], the Tmax in [2] (round 1, 0.008 mg/kg/day TID oral) amounted to 1.5 h. In addition, the Tmax in [2] (round 2, 0.04 mg/kg/day TID oral) turned out to be 2.0 h. In addition, the Tmax in data set [2] (round 3, 0.2 mg/kg/day TID oral) came to 2.1 h. Moreover, the “Tolerability / toxicities or negative health effects” value in data set [3] (TID oral administration, 0.008-0.2 mg/kg/day, monosodium salt) is “overall tolerable; also recorded: no toxicities or negative health effects”. In addition, in data set [3] (entire study), the “Average weight decrease across all cohorts” value is 5.5% and the “Largest individual loss of initial body weight” value is at most 8.7%. The same molecule showed an EC50 in [1] (Replicate 1) of 5.7 nM. Moreover, in data set [1] (Replicate 2), the concentration giving a half-maximal response (EC50) came to 4.14 nM. The EC50 in data set [1] (Replicate 3) is 1.95 nM. In addition, in data set [4], the “CRS symptoms vs control group” value was “reduced CRS symptoms” and the “Undesired cytokine production vs control group” value is given as “lower undesired cytokine production”. For the same molecule, in [5], the Comparison with dexamethasone result is “superior to dexamethasone” and the “Survival benefits over dexamethasone” value is reported as “greater survival benefits”. Further, the Elimination half-life in data set [6] (calculated using first daily dose, range of 6-12 h (Rsq=0.40)) is given as 1.8 h. Besides, the “T1/2 of BID exposure” value in data set [6] (two times a day (BID) dose) is “approximately 5 hours”. Further, in [7] (setting [13]), the “Maximum reduction of IFN-γ” value was about 26%, the “Maximum reduction of TL-6” value is given as about 23% and the “Maximum reduction of TNF-α” value was “approximately 50%”. The “Levels of IL-6” value in [7] (CAR T-cells and Raji cells at a 10:1 ratio (FIG. 1A)) was “dose-dependently lowers”. For the same molecule, the “Levels of TNF-α” value in [7] (CAR T-cells and Raji cells at a 10:1 ratio (FIG. 1B)) is “dose-dependently lowers”. The “Levels of IFN-γ” value in data set [7] (CAR T-cells and Raji cells at a 10:1 ratio (FIG. 1C)) is on record as “dose-dependently lowers”. The Food effect result in “Food effect” is reported as “positive food effect”. Further, in data set [8], the “CRS symptoms vs control group” value is “reduced CRS symptoms” and the “Undesired cytokine production vs control group” value is listed as “lower undesired cytokine production”. The “Cytokine levels (panel of 27 cytokines)” value in data set [9] was “no clinically significant decreases”. Moreover, in data set [9] (15 to 60 μg/day, 7 days), the “SAEs, TEAEs of special interest, TEAEs leading to study discontinuation or dose reduction” value is given as “No SAEs”; the “Treatment-emergent AEs, mild” value was 62 AEs; the “Treatment-emergent AEs, moderate” value is listed as 4 AEs. Further, the T1/2 in data set [10] lay in the range of 1 to 2 h. Also, the “Effect on tumor/target cell killing of CD19-directed CAR T-cells” value with CD19+Raji tumor cells is “absence of an effect; also recorded: did not impact or interfere”. Moreover, in the data set with influenza (H1N1) (setting [14]), the IL-2 level entry is reported as “reduced”, the IL-6 level entry was “reduced” and the IL-10 level result is “reduced”. Besides, the IFN-α concentrations entry with influenza (H1N1) (lethal H1N1 influenza infections) is recorded as “no significant repression”. Further, in data set [11], the “Cytokine levels in serum (TNFα representative)” value was “remarkable and consistent reduction”. Moreover, the “Effect on CD19 CAR T-cell activity (reduction of lymphoma tumor burden)” value with Raji-luc tumor cells (0.3, 0.2 or 0.15 mg/kg/d BID for 14 days, Day 15, monosodium salt) is given as “does not interfere; also recorded: did not affect”. The “Clinical morbidities, including weight loss or limb movement” value in the data set on Raji-luc tumor cells (NSG mice, with CAR T-cell therapy) is “did not cause any increase”. Also, in [12], the “CRS symptoms vs control group” value was “reduced CRS symptoms” and the “Undesired cytokine production vs control group” value is listed as “lower undesired cytokine production”. In addition, in the data set on influenza (H5N1), the IL-2 level result is recorded as “reduced”, the IL-6 level result is “reduced”, the IL-8 level entry is on record as “reduced” and the IL-10 level entry is listed as “reduced”.
With `CC#CCC(C)C(O)C=CC1C(O)CC2Oc3c(CCCC(=O)[O-])cccc3C21.[Na+]` (centres unmarked) [beraprost sodium, 2,3,3a,8b-tetrahydro-2-hydroxyl-1-(3-hydroxyl-4-methyl-1-octen-6-ynyl)-1H-cyclopenta[b]benzofuran-5-butanoic acid, sodium salt], the TNF-α entry in the data set on TNF-α is “significant reductions”.

The EC50 is the concentration that produces a half-maximal response. As usually defined, the Tmax is the time at which the peak concentration occurs.
